The text below walks through data of patent publication US7589123B2, “Chemical compounds” (Phytopharm PLC, priority 2006, dated 2009).

Data set [1] concerns α-smooth muscle actin (α-SMA) mRNA. The experiment in a line: Anti-remodelling activity in human lung fibroblasts (HFL1): TGFβ-induced α-SMA mRNA (Assay 4). Format: cell-based. The note with it: Homo sapiens, HFL1 cells, TGFβ 10 ng/ml, 24 h, read-out: Inhibition of α-SMA mRNA synthesis (%). A digest of the protocol:
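Real-time RT-PCR of α-SMA mRNA, GAPDH as reference, measured after 24 h exposure of low-serum-primed HFL1 cells to 10 ng/ml TGFβ with test compounds (3 and 30 μM) in 10% FBS medium. Readout is inhibition of TGFβ-driven α-SMA mRNA overexpression.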

Data set [2] has as its system histamine-induced contractions in guinea pig ileum. Description: Inhibition of histamine-induced contractions in guinea pig ileum (Assay 3). The note with it: Cavia porcellus, histamine 1.7 μM, read-out: Inhibition of histamine-induced contraction (%). A digest of the protocol: (§1)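 Isolated male guinea pig ileum strips in Krebs at 32° C, pH 7.4, 1 g resting tension, isotonic recording. Contraction to test compound (3 and 30 μM) alone recorded, then inhibition of responses to histamine 1.7 μM or 5-HT 2.6 μM (~EC60-70, 5 min) measured in its continued presence.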

Another data set addresses TRPV1 receptor (Rattus norvegicus, UniProt O35433). The experiment in a line: TRPV1 modulation in DRG neurones: CGRP release in absence and presence of capsaicin (Assay 2). Format: cell-based. Also noted: The culture used for this experiment contained sensory neurones, Schwann cells and fibroblasts; endogenous in cells; host or cells: primary rat DRG sensory neurone culture (with Schwann cells and fibroblasts). The note with it: 20 min; for inhibition at 3 µM: 3 μM with capsaicin 1 μM; for Emax at 3 µM: test compound alone 3 μM; for Emax at 3 µM / Emax at 30 µM: rat DRG sensory neurones, read-out: CGRP release (% of capsaicin (1 μM) response); for Emax at 30 µM: test compound alone 30 μM.

The target in the next data set is T1, 5-lipoxygenase (Homo sapiens, UniProt P09917).
T1 construct: endogenous in cells; host or cells: human peripheral blood mononuclear leukocytes (PBMLs)
T1 sequence (P09917 1-674): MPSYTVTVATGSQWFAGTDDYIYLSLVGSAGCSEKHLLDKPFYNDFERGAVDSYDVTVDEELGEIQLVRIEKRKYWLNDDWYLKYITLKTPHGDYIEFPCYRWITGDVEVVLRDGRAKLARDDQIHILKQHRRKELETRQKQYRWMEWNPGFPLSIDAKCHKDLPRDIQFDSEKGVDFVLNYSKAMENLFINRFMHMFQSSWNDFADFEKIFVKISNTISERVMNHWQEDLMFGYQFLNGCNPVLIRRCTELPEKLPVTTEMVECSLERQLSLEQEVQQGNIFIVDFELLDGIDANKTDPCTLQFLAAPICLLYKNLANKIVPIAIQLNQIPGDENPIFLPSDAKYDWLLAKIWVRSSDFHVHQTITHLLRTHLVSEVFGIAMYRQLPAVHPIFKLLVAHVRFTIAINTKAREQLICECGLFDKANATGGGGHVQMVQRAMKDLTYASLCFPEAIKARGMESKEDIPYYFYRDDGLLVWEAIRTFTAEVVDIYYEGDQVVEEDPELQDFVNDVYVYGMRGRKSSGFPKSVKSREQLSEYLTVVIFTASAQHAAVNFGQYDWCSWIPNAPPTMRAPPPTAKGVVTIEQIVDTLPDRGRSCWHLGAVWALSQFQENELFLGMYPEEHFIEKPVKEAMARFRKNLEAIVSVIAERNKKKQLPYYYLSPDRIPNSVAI
Description: 5-lipoxygenase activity (LTB4) in human peripheral blood mononuclear leukocytes (Assay 6). It is filed as cell-based. The note with it: human PBMLs, A23187 30 μM, read-out: Inhibition of 5-LO (%). The gist of the method:
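Human PBMLs (5×10^6 cells, Ficoll-isolated) stimulated with 30 μM A23187 plus compound at 3 or 30 μM or 0.1% DMSO in HBSS pH 7.4, 37° C., 15 min. After NaOH neutralisation and centrifugation, supernatant LTB4 measured by enzyme immunoassay.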

Data set [3] relates to 5-HT-induced contractions in guinea pig ileum. The experiment in a line: Inhibition of 5-HT-induced contractions in guinea pig ileum (Assay 3). The note with it: Cavia porcellus, 5-HT 2.6 μM, read-out: Inhibition of 5-HT-induced contraction (%). A digest of the protocol:
as §1

A further data set relates to WI-38 cells. The experiment in a line: Viability of WI-38 cells, Alamar Blue (Assay 5). It is filed as cell-based, human. The gist of the method: (§2)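 WI-38 fibroblasts stimulated overnight at 37 °C with 1 nM IL-1α plus test compound at 3 and 30 μM in MEM with 10% FBS, pH 7.3; released PGE2 in supernatant quantified by radioimmunoassay as percent inhibition. Viability then checked by Alamar Blue, 4 h at 37 °C, fluorescence ex 530/em 590 nm.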

The subject of data set [4] is IL-1α-induced PGE2 release. Description: IL-1α-induced PGE2 release in human diploid lung fibroblasts (WI-38) (Assay 5). Format: cell-based. The note with it: Homo sapiens, WI-38 cells, IL-1α 1 nM, overnight. A digest of the protocol: as §2
Setting [5] is: −ve: inhibition, +ve: potentiation of capsaicin response, read-out: Effect of test compounds on capsaicin (1 μM)-induced CGRP release (%).
The mark [6] stands for this setting: 30 μM with capsaicin 1 μM, −ve: inhibition, +ve: potentiation of capsaicin response, read-out: Effect of test compounds on capsaicin (1 μM)-induced CGRP release (%).

Structures are written as SMILES.

Sequence of TRPV1 receptor (O35433 whole entry): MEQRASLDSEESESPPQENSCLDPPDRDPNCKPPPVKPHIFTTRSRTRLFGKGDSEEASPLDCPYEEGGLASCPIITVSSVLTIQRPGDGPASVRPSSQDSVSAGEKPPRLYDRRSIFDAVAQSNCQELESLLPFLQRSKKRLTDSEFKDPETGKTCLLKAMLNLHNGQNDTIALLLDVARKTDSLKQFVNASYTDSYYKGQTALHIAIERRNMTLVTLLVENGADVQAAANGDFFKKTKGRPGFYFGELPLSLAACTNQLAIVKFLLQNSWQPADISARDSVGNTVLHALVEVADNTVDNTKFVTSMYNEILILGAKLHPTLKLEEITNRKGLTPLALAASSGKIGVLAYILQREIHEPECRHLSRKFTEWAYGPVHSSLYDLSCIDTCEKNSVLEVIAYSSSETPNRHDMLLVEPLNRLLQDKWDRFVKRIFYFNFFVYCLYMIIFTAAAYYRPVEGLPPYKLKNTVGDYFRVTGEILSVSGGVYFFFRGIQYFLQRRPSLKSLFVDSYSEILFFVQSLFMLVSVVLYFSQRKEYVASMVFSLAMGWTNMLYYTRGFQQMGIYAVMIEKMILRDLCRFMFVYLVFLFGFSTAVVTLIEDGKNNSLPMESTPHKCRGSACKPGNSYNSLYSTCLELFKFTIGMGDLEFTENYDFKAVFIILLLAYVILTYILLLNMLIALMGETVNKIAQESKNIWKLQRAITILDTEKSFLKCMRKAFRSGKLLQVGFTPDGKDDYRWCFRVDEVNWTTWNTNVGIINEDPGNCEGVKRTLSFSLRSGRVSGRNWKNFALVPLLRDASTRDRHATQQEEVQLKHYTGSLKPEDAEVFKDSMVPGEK

Turning to `COc1cc(CCC(=O)CC(=O)c2ccc(Cl)cc2C)ccc1O` [Compound 76, 1-(4-Chloro-2-methylphenyl)-5-(4-hydroxy-3-methoxyphenyl)pentane-1,3-dione], the inhibition at 3 µM in data set [1] is -1%; in data set [2] it was 9%; on TRPV1 receptor (setting [5]), 9%; at 5-lipoxygenase it was 74%; in data set [3] it was 26%; in data set [4] it was 99%. Moreover, the inhibition at 30 µM came out at 94% in data set [1]; 81% in data set [2]; 4% on TRPV1 receptor (setting [6]); 99% at 5-lipoxygenase; 72% in data set [3]; 101% in data set [4]. Also, the Emax at 3 µM at TRPV1 receptor was found to be 55%. Further, on TRPV1 receptor, the Emax at 30 µM turned out to be 107%. Further, the “Decrease in cell viability (%)” value with WI-38 cells (3 μM) stood at 4%; with WI-38 cells (30 μM), 26%.

Regarding `COc1cc(CCC(=O)CC(=O)c2ccc(C)cc2)ccc1O` [Compound 80, 5-(4-Hydroxy-3-methoxyphenyl)-1-p-tolylpentane-1,3-dione], the inhibition at 3 µM in data set [1] worked out at 4%; in data set [2] it was 2%; on TRPV1 receptor (setting [5]), 44%; at 5-lipoxygenase, 61%; in data set [3] it was 14%; in data set [4], 72%. Besides, the inhibition at 30 µM in data set [1] was 29%; in data set [2], 62%; on TRPV1 receptor (setting [6]) it was -24%; on 5-lipoxygenase, 97%; in data set [3], 68%; in data set [4] it was 102%. Also, the Emax at 3 µM at TRPV1 receptor worked out at 68%. The Emax at 30 µM on TRPV1 receptor came to 118%. For the same compound, the “Decrease in cell viability (%)” value in the data set with WI-38 cells (3 μM) stood at 2%; in the data set on WI-38 cells (30 μM) it was 1%.

As to `COc1cc(CCC(=O)C(C)(C)C(=O)c2ccc(C)cc2)ccc1O` [Compound 81, 5-(4-Hydroxy-3-methoxyphenyl)-2,2-dimethyl-1-p-tolylpentane-1,3-dione], the inhibition at 3 µM is -2% in data set [1]; 22% in data set [2]; 25% on TRPV1 receptor (setting [5]); 64% on 5-lipoxygenase; 21% in data set [3]; 62% in data set [4]. In addition, the inhibition at 30 µM is 55% in data set [1]; 94% in data set [2]; -22% at TRPV1 receptor (setting [6]); 97% on 5-lipoxygenase; 95% in data set [3]; 101% in data set [4]. At TRPV1 receptor, the Emax at 3 µM is 45%. At TRPV1 receptor, the Emax at 30 µM came out at 104%. The “Decrease in cell viability (%)” value was 3% in the data set with WI-38 cells (3 μM) and −7% with WI-38 cells (30 μM).

In the case of `COc1cc(CCC(=O)CC(=O)c2ccc(C#N)cc2)ccc1O` [Compound 82, 1-(4-Cyanophenyl)-5-(4-hydroxy-3-methoxyphenyl)pentane-1,3-dione], the inhibition at 3 µM was -3% in data set [1]; 12% in data set [2]; 4% on TRPV1 receptor (setting [5]); 48% on 5-lipoxygenase; 13% in data set [3]; 78% in data set [4]. Also, the inhibition at 30 µM came to 39% in data set [1]; 20% in data set [2]; 27% at TRPV1 receptor (setting [6]); 97% on 5-lipoxygenase; 83% in data set [3]; 102% in data set [4]. Moreover, the Emax at 3 µM on TRPV1 receptor turned out to be 53%. Further, the Emax at 30 µM on TRPV1 receptor amounted to 58%. The “Decrease in cell viability (%)” value in the data set with WI-38 cells (3 μM) is −4%; in the data set on WI-38 cells (30 μM) it was 6%.

`COc1cc(CCC(=O)CC(=O)c2ccc(C(C)(C)C)cc2)ccc1O` [Compound 83, 1-(4-tert-Butylphenyl)-5-(4-hydroxy-3-methoxyphenyl)pentane-1,3-dione]: the inhibition at 3 µM in data set [1] is -2%; in data set [2], 16%; on TRPV1 receptor (setting [5]), 11%; on 5-lipoxygenase it was 52%; in data set [3] it was 4%; in data set [4] it was 86%. For the same compound, the inhibition at 30 µM was determined as 86% in data set [1]; 17% in data set [2]; 99% on 5-lipoxygenase; 11% in data set [3]; 102% in data set [4]. Besides, the percent change in capsaicin-induced CGRP release (negative = inhibition, positive = potentiation) at 30 µM at TRPV1 receptor (setting [6]) turned out to be 0%. The Emax at 3 µM at TRPV1 receptor stood at 66%. At TRPV1 receptor, the Emax at 30 µM is 144%. Also, the “Decrease in cell viability (%)” value in the data set on WI-38 cells (3 μM) came out at 4%; with WI-38 cells (30 μM) it was 31%.

With `COc1cc(CCC(=O)CC(=O)c2ccccc2C)ccc1O` [Compound 84, 5-(4-Hydroxy-3-methoxyphenyl)-1-o-tolylpentane-1,3-dione], the inhibition at 3 µM in data set [1] turned out to be 6%; in data set [2], 19%; on TRPV1 receptor (setting [5]) it was 32%; at 5-lipoxygenase it was 77%; in data set [3], 22%; in data set [4], 101%. Besides, the inhibition at 30 µM worked out at 65% in data set [1]; 66% in data set [2]; 26% on TRPV1 receptor (setting [6]); 98% on 5-lipoxygenase; 100% in data set [3]; 102% in data set [4]. Besides, the Emax at 3 µM at TRPV1 receptor was determined as 54%. In addition, on TRPV1 receptor, the Emax at 30 µM is 74%. Also, the figures for the “Decrease in cell viability (%)” value with WI-38 cells (3 μM) and in the data set on WI-38 cells (30 μM) were 3% and 12%, respectively.
